Experimental data from patent US10961526B2, “Transformant, and method for producing protocatechuic acid or salt thereof using same” (RESEARCH INSTITUTE OF INNOVATIVE TECHNOLOGY FOR THE EARTH, priority 2016, dated 2021).

Columns and labels:
Format in all cases: cell-based
[1] = tested on: Bacillus subtilis strain NBRC14144; assay: Inhibition by protocatechuic acid of growth in aerobic culture (OD610); settings: LB-liquid medium, aerobic shaking culture 37° C.
Source text: (§1) In a case where a product that has cytotoxicity, such as protocatechuic acid, is produced by the fermentation process using microorganisms, it is important that a host microorganism has resistance against the product, that is, hardly suffers from growth inhibition by the product. Then, for studying the degree of resistance against protocatechuic acid of Corynebacterium glutamicum, which is preferable as a host microorganism in the present invention, in comparison with other microorganisms, studies were made on the inhibition by protocatechuic acid of the growth of Corynebacterium glutamicum, Escherichia coli, Bacillus subtilis, Pseudomonas putida, Rhodococcus erythropolis, and Saccharomyces cerevisiae in aerobic culture.
(§2) Further, Escherichia coli strain K12, Bacillus subtilis strain NBRC14144, Pseudomonas putida strain ATCC700801, and Rhodococcus erythropolis strain ATCC27854 were applied to LB-agar plate [containing 1% polypeptone, 0.5% yeast extract, 0.5% sodium chloride, and 1.5% agar]. Escherichia coli strain K12 and Bacillus subtilis strain NBRC14144 were cultured at 37° C. for 16 hours, while Pseudomonas putida strain ATCC700801 and Rhodococcus erythropolis strain ATCC27854 were cultured at 30° C. for 16 hours. Each strain grown on the plate described above was inoculated in 10 ml of LB-liquid medium [1% polypeptone, 0.5% yeast extract, and 0.5% sodium chloride]. Escherichia coli strain K12 and Bacillus subtilis strain NBRC14144 were subjected to aerobic shaking culture at 37° C. for 16 hours, while Pseudomonas putida strain ATCC700801 and Rhodococcus erythropolis strain ATCC27854 were subjected to aerobic shaking culture at 30° C. for 16 hours. Each strain grown under the above-described conditions was inoculated in 10 ml of the LB-liquid medium so that the initial bacterial cell concentration OD610=0.1, and simultaneously protocatechuic acid was added so that the final concentrations were 0, 25, 50, 100, 250, 500 mM. Escherichia coli strain K12 and Bacillus subtilis strain NBRC14144 were subjected to aerobic shaking culture at 37° C., while Pseudomonas putida strain ATCC700801 and Rhodococcus erythropolis strain ATCC27854 was subjected aerobic shaking culture at 30° C. The growth of bacterial cells was determined by measuring OD610.
(§3) How the addition of protocatechuic acid to medium influenced aerobic growth of each strain was analyzed, and the results are shown in FIG. 2.

[2] = tested on: Rhodococcus erythropolis strain ATCC27854; assay: as above; settings: LB-liquid medium, aerobic shaking culture 30° C.
Source text: as §1, §2, §3

[3] = tested on: Pseudomonas putida strain ATCC700801; assay: as above; settings: LB-liquid medium, aerobic shaking culture 30° C.
Source text: as §1, §2, §3

[4] = tested on: Escherichia coli strain K12; assay: as above; settings: LB-liquid medium, aerobic shaking culture 37° C.
Source text: as §1, §2, §3

[5] = tested on: Saccharomyces cerevisiae strain NBRC2376; assay: as above; settings: YPD liquid medium, aerobic shaking culture 30° C.
Source text: as §1
Further, Saccharomyces cerevisiae strain NBRC2376 was applied to YPD agar plate [2% polypeptone, 1% yeast extract, 2% glucose, and 1.5% agar], and was cultured at 30° C. for 16 hours. Saccharomyces cerevisiae strain NBRC2376 on the plate described above was inoculated in YPD liquid medium [2% polypeptone, 1% yeast extract, and 2% glucose], and was subjected to aerobic shaking culture at 30° C. for 16 hours. […] The growth of bacterial cells was determined by measuring OD610.
as §3

[6] = tested on: Corynebacterium glutamicum strain R; assay: as above
Source text: as §1
Corynebacterium glutamicum strain R was applied to an A-agar plate [obtained by dissolving the following in distilled water 1 L: (NH2)2CO 2 g, (NH4)2SO4 7 g, KH2PO4 0.5 g, K2HPO4 0.5 g, MgSO4.7H2O 0.5 g, 0.06% (w/v) Fe2SO4.7H2O+0.042% (w/v) MnSO4.2H2O 1 ml, 0.02% (w/v) biotin solution 1 ml, 0.01% (w/v) thiamine solution 2 ml, yeast extract 2 g, vitamin assay casamino acid 7 g, agar 20 g] containing glucose at 4%, and was cultured at 33° C. for 16 hours. […] The growth of bacterial cells was determined by measuring OD610.
as §3

[7] = tested on: Corynebacterium glutamicum strain R; assay: Glucose consumption under presence of high concentration of protocatechuic acid; settings: high concentration of protocatechuic acid (0, 50, 250, 500 mM), 24-hour culture, 33° C.
Method: As indicated in Reference Example 1, Corynebacterium glutamicum was able to grow even under the presence of a high concentration of protocatechuic acid. Then, a glucose consumption ability of Corynebacterium glutamicum under the presence of a high concentration of protocatechuic acid was further studied in the following manner.
Corynebacterium glutamicum strain R was applied to the above-described A-agar plate containing glucose 4%, and was cultured at 33° C. for 16 hours. One platinum loop of Corynebacterium glutamicum strain R grown on the above-described plate was inoculated in a test tube having therein 10 ml of the above-described A-liquid medium containing glucose 4%, and was subjected to aerobic shaking culture at 33° C. for 16 hours. Corynebacterium glutamicum strain R grown under the above-described conditions was inoculated in 10 ml of the above-described A-liquid medium containing glucose 4% so that the initial bacterial cell concentration OD610=0.2. Simultaneously, protocatechuic acid was added so that the final concentrations thereof became 0, 50, 250, 500 mM, and aerobic shaking culture was carried out at 33° C. After 24-hour culture, culture solutions were collected, and centrifuged (4° C., 15,000×g, 5 minutes). Concentrations of glucose in the supernatants obtained were measured by a glucose sensor in the same manner as Example 2 to be described below. […]

Compound: O=C(O)c1ccc(O)c(O)c1 [protocatechuic acid]
- growth of Bacillus subtilis strain NBRC14144 ([1]; 250 mM protocatechuic acid): significantly inhibited
- growth of Bacillus subtilis strain NBRC14144 ([1]; 500 mM protocatechuic acid): substantially completely inhibited
- growth of Rhodococcus erythropolis strain ATCC27854 ([2]; 250 mM protocatechuic acid): strongly inhibited
- growth of Rhodococcus erythropolis strain ATCC27854 ([2]; 500 mM protocatechuic acid): substantially completely inhibited
- growth of Pseudomonas putida strain ATCC700801 ([3]; 100 mM protocatechuic acid): strongly inhibited
- growth of Pseudomonas putida strain ATCC700801 ([3]; 250 mM protocatechuic acid): substantially completely inhibited
- growth of Escherichia coli strain K12 ([4]; 100 mM protocatechuic acid): significantly inhibited
- growth of Escherichia coli strain K12 ([4]; 250 mM protocatechuic acid): substantially completely inhibited
- growth of Saccharomyces cerevisiae strain NBRC2376 ([5]; 250 mM protocatechuic acid): inhibited
- growth of Saccharomyces cerevisiae strain NBRC2376 ([5]; 500 mM protocatechuic acid): significantly inhibited
- growth capacity of Corynebacterium glutamicum ([6]; 500 mM protocatechuic acid): robust growth capacity
- growth of Corynebacterium glutamicum strain R ([6]; 250 to 500 mM of protocatechuic acid, A-liquid medium with glucose 4%, aerobic shaking culture 33° C.): robust growth
- decrease in the saccharide consumption by Corynebacterium glutamicum [7]: small
